# Measured values from patent US11000505B2 (priority 2010, dated 2021).
# “And” between values parts separate entries of the source, which are not always exact repeats. Equal values may be shown once.
# How the values were obtained:
# [1] = tested on: pial artery; format: in vivo, newborn pigs
# [2] = tested on: pial artery; conditions: pig, in vivo
# [3] = tested on: ERK; assay: CSF ERK activity (pERK/ERK) after HI by ELISA (Example 2); format: in vivo, newborn pigs; conditions: 60 min after HI; 10 μg/kg i.v. at 0 or 30 min after HI
# Experimental: Newborn pigs (1-5 days old, 1.2-1.5 kg) of both sexes were used in this study. The animal experimental protocol was approved by the Institutional Animal Care and Use Committee of the University of Pennsylvania. As described previously, Isoflurane (1 to 2 minimum alveolar concentration) was initially used for anesthesia induction, followed by α-chloralose (30-50 mg/kg supplemented with 5 mg/kg/hr intravenously) for maintenance of anesthesia. After tracheotomy, the animals were initially ventilated with room air and kept warm with heating pad to maintain the rectal temperature at 37-39° C. Bilateral femoral arteries were catheterized to monitor the blood pressure, blood gas tensions and pH. The femoral vein was catheterized for medication administration. A closed cranial window, consisting of a steel ring with a glass cover slip, connecting to 3 ports, was placed for direct pial artery visualization and diameter measurement. Small pial arteries (120 to 160 μm) and arterioles (50 to 70 μm) were identified under a microscope, visualized on a monitor connected to the microscope, and measured via a video microscaler (model VPA 550, For-A-Corp., Los Angeles, Calif.). […]
# ERK activity were then determined from frozen CSF samples described above. The levels of pERK and ERK were measured by ELISA kits (Enzo Life Sciences International, Inc., Plymouth Meeting, Pa.).
# [4] = Physical and chemical properties: pKa; conditions: Non-ionizable
# [5] = tested on: ERK/MAPK; assay: CSF pERK/ERK after pretreatment by ELISA (Example 3); format: in vivo, piglets; conditions: 30 minutes after pretreatment
# [6] = tested on: neonatal mouse hypoxia model; assay: Neonatal mouse hypoxia model: mortality, development, neurobehavior (Example 5); format: in vivo, C57BL/6J mice
# Source text: The protocol was approved by the Institutional Animal Care and Use Committee (IACUC) of the University of Pennsylvania and carried out in accordance with National Institutes of Health guidelines for the use of animals. C57BL/6J mice were purchased from The Jackson Laboratory (Bar Harbor, Me.) and inbreed pups were used for subsequent experiments. Pups were housed under a 12-hour light/dark cycle after birth with free access to food and water throughout the study. Pups from different litters were divided into 3 groups randomly. Pups in the control group (n=11) received i.p. injection of 17% dimethyl sulfoxide (DMSO) without hypoxia insult; the hypoxia group (n=46) received i.p. injection of 17% DMSO and hypoxia insult; SA group (n=26) received i.p. injection of 0.5 mg/kg SA in 17% DMSO and hypoxia insult. Pups of low weight (<1.2 g) were excluded from the study.
# The hypoxic insult was induced on postnatal day 1. After i.p. injections, pups were put into a glass chamber in a water bath where the temperature was maintained at 37° C. The chamber was tightly closed and filled with 8% oxygen with balanced nitrogen. Following 120 minutes of hypoxic gas exposure, the chamber was opened and the pups were exposed to the air. Chest compressions and limb stretches were performed for up to 20 minutes to regain spontaneous breathing. The pups that successfully regained spontaneous breathing were then returned to their mothers after recovery for 30 minutes.
# The neonate mouse will be considered as non-survival if no spontaneous breathing can be restored for 20 min resuscitation immediately after anoxic insult. The mortality rate will be calculated as: […]=(number of mice in a group-number of non-survival)/number of mice in a group.
# From postnatal day 2 to postnatal day 21, the pups were weighed and motor behavior observation was performed every day. Pups were observed individually in a plastic testing box. Each of the following behaviors was recorded for 3 minutes: crawling, walking, running, head point and sniffing, sitting, rearing and eye opening. After the observation, placing reflex, cliff aversion, negative geotaxis, righting response and forelimb grasping testing were performed. The first appearance of the behavior or reflex continued for two consecutive days was recorded.
# The open field test was performed to gauge locomotor activity on postnatal day 21 at which the mouse was considered juvenile. Mice were individually placed in a 41 cm (L)×41 cm (W)×30 cm (H) plastic box. The “central area” was defined as a 20.5 cm×20.5 cm square in the center of the box. The rest of the area was defined as the “peripheral area” (see FIG. 25A). The time each mouse spent on exploring the central and periphery parts and the number of rearing behaviors in each respective area were recorded for the first 5 minutes and 30 minutes.
# At the age of 10-11 weeks, all mice were tested in several behavioral tasks in the order of: zero mazes, barnes maze and fear conditioning. These tasks were performed to examine the basal anxiety level, spontaneous locomotor activity, motor learning, spatial learning and associative memory of the mice. The mice were given 5 days for rest between each behavioral test.
# “Time in open” measures mice anxiety due to their tendency to avoid open spaces. The anxiety was measured by recording the time spent in the open vs. enclosed space. Increased anxiety correlates to decreased time in the open. Open/Closed transitions measure overall activity. Increased transitions equate to greater activity.
# Measures the ability to learn with visual cues. Time to Target measures the time taken to find the target hole in an arena with 19 other holes and several visual cues. The Barnes Maze is easier to set-up and probably less stressful and a valid alternative to the Water Maze to study spatial memory. […]
# [7] = tested on: cGMP; assay: cGMP in CSF by ELISA (Example 1); format: in vivo, newborn pigs
# [8] = 10 μg/kg i.v. co-administrated with nor-BIN 1 μM topical
# [9] = 10 μg/kg i.v. immediately or 30 min after HI, 60 min after HI
smiles,measurement,setting,value
COC(=O)[C@@H]1C[C@H](OC(C)=O)C(=O)[C@H]2[C@@]1(C)CC[C@H]1C(=O)O[C@H](c3ccoc3)C[C@]21C [Salvinorin A],pial artery dilation response to hypercapnia after HI with nor-BIN,[1]; [8],abolished completely
same,pial artery dilation response to hypotension after HI with nor-BIN,[1]; [8],abolished
same,pial artery dilation response to hypercapnia after HI,[1]; [9],preserved the dilation responses of pial artery to hypercapnia
same,pial artery dilation response to hypotension after HI,[1]; [9],preserved the dilation responses of pial artery to hypotension
same,blood pressure changes during administration,[2],No significant blood pressure changes
same,dilation of constricted pial arteries,[2],dilated pial arteries under elevated tone conditions
same,dilation of pial artery,[2],"dose dependently (10 nM, 1 μM) dilated the pial artery"
same,dilation response in presence of L-NNA,[2],abolished by L-NNA
same,dilation response in presence of glibenclamide,[2],blocked the dilation effects of salvinorin A
same,dilation response in presence of naloxone,[2],blocked the dilation effects
same,dilation response in presence of norbinaltorphimine,[2],blocked the dilation effects
same,dilation response in presence of sulpiride,[2],had no effect on the dilation response
same,dilation with repeated administration,[2],sustained dilation effects was observed
same,CSF ERK activity (pERK/ERK),[3],reduced to the baseline level
same,pKa,[4],None
same,ratio of pERK/ERK in CSF,[5],increased significantly
same,ratio of pERK/ERK in CSF with U0126,[5]; U0126 30 minutes before salvinorin,unchanged
same,mortality rate,"[6]; 0.5 mg/kg i.p. before 120 min hypoxia (8% oxygen), postnatal day 1, hypoxia group 70%",38.5%
same,"delayed appearance of forelimb grasping, cliff aversion, righting response and eye opening",[6]; 0.5 mg/kg i.p. before hypoxia,prevented these delays
same,pups survived after HI injury,[6]; 0.5 mg/kg i.p. before hypoxia,16 out of 26
same,body weight difference among groups,"[6]; P7, P14 and P21",no significant difference was observed among groups
same,"time in the central area, open field testing",[6]; P21,not statistically significant
same,rearing test,"[6]; P21, first 5 minutes and 30 minutes",impairment was not observed
same,Barnes maze spatial memory,[6]; age 10-11 weeks,no significant difference among groups
same,"elevated zero maze: time in open arm and open/closed transitions, SA vs hypoxia",[6]; age 10-11 weeks,no significant differences
same,fear conditioning,[6]; age 10-11 weeks,no significant differences were observed among groups
same,first appearance of rearing without support,"[6]; hypoxia 19.86±0.29, control 18.18±0.44, mean±SEM, listed as SA",18.69 ± 0.38 days and 18.69 ± 0.3843 days
same,"other developmental parameters (crawling, walking, running, head point and sniffing, sitting, rearing with support, negative geotaxis, placing reflex)","[6]; mouse, in vivo",no statistical significance
same,body weight vs hypoxia group,[6]; postnatal day 2 and day 3,increased body weight
same,cGMP in CSF,[7]; 10 min after administration,elevated cGMP in CSF
same,cGMP in CSF in presence of L-NNA,[7]; L-NNA pretreatment,L-NNA blocked the elevation of the cGMP
same,cGMP in CSF in presence of norbinaltorphimine,"[7]; norbinaltorphimine pretreatment, 10 nM and 1 μM",Norbinaltorphimine blocked the elevation of cGMP
